Experimental data published in patent US6534075B1, “Antimicrobial and antiviral compositions and treatments for food surfaces” (Ecolab Inc., priority 1999, dated 2003).
Read-outs that look alike come from different tables or passages of the source. Marks after values point to notes of the source that are not given here.

Columns and labels:
[1] = test system: Feline parvovirus; settings: published results against Feline parvovirus, cited from earlier work
[2] = test system: E. coli; assay: Log reduction of E. coli by liquid compositions, 30 second contact (Tables 4, 5); format: cell-based; settings: for Log Reduction: E. coli; for E. Coli Log Reduction: single component alone, pH 3, 30 second contact time, vs untreated control
Source text: Results recorded include the pH of the solution, the color of the solution and the log reduction in microbe. In Table 4, E. coli is used in all examples, while a variety of organisms (gram positive and gram negative bacteria, a yeast, a mold) are used in Table 5. [table] [table]

[3] = test system: S. aureus; assay: Log reduction of S. aureus by liquid compositions, 30 second contact (Table 5); format: cell-based; settings: N-source:H2O2:KI 0:300:0 ppm, pH 5, 30 second contact
Source text: (§1) Results recorded include the pH of the solution, the color of the solution and the log reduction in microbe. In Table 4, E. coli is used in all examples, while a variety of organisms (gram positive and gram negative bacteria, a yeast, a mold) are used in Table 5.

[4] = test system: Z. bailii; assay: Log reduction of Z. bailii by liquid compositions, 30 second contact (Table 5); format: cell-based
[5] = test system: P. expansum; assay: Log reduction of P. expansum by liquid compositions, 15 minute contact (Table 5); format: cell-based
Source text: as §1

[6] = test system: S. javiana; assay: Microbial reduction on Roma tomato surfaces, five minute submersion (Table 6); settings: tomatoes submerged five minutes at 72° F., versus untreated control
Method: Specifically, comparison is made to the use of either sodium hypochlorite (bleach), hydrogen peroxide or peracetic acid.
Testing was performed on commercial Roma tomato surfaces using the test organism Salmonella javinia. For the pathogenic organisms, a 1:10 dilution of a 10^7 CFU/ml (colony forming units per ml) test system suspension was prepared. Whole tomatoes were placed into a plastic bag, and each bag was inoculated with a 10-mil. test system suspension, resulting in an inoculum level of […]. Bags are gently shaken for even distribution of the test system for five minutes. The produce types are then stored overnight at 4° C. Untreated controls were also prepared. Two-liter volumes of the test solutions were prepared in 4-liter beakers. Solutions were prepared in laboratory tap water to simulate industry conditions. The tomatoes were then exposed to the test solution by submersion for five minutes at 72° F. (about 22° C.). At the end of that time, the tomatoes were removed from the solution and thoroughly rinsed under fresh-running tap water. Fifty grams of the home produce (tomato), plus 100 ml buffered dilution water were placed into a stomacher bag. The tomatoes were massaged for 60 seconds. […] on TGE (Salmonella). Plates were incubated at 35° C. for 48 hours.

[7] = test system: S. aureus; assay: Food-preparation hard surface sanitizing comparison, S. aureus (Table 12); format: cell-based; settings: actives conc. 300 ppm
Source text: (§2) Table 12 compares formulas of the present invention with prior art examples of food-preparation hard surface sanitizing. […] [table]

[8] = test system: E. coli ATCC 11229; assay: Food-preparation hard surface sanitizing comparison, E. coli (Table 12); format: cell-based; settings: actives conc. 300 ppm; 30 second exposure
Source text: as §2

[9] = test system: Total bacterial flora; assay: Meat carcass treatment, prerigor beef surfaces (Table 7); settings: active antimicrobial 1000 ppm; carcass treated 30 seconds, drained 10 minutes
Method: Working Example 5 is similar to the previous example in that comparisons are made between the present invention and known commercial compositions for control of microorganisms on food surfaces. In this case, however, comparisons were made for meat carcass treatments.
Testing was performed on prerigor beef surfaces from a packing house. Total bacterial flora were tested. The carcasses were treated for 30 seconds and drained for 10 minutes. Test samples were isolated and plated for total […].

[10] = N-source:H2O2:KI 300:0:0 ppm, pH 7, 30 second contact

CCO [Ethanol]
Minimum Concentration (for 10-minute inactivation) [1]: 500,000 ppm

OO [Formula H2O2, hydrogen peroxide]
Log Reduction ([2]; N-source:H2O2:KI 0:300:0 ppm, pH 5, 30 second contact): 0.2 log
E. Coli Log Reduction [2]: 0.2 log
Log Reduction [3]: 0.4 log
Log Reduction ([4]; N-source:H2O2:KI 0:532:0 ppm, pH 3, 30 second contact): 0.1 log
Log Reduction ([4]; N-source:H2O2:KI 0:532:0 ppm, pH 5, 30 second contact): 0.1 log
Log Reduction ([4]; N-source:H2O2:KI 0:532:0 ppm, pH 7, 30 second contact): 0.1 log
Log Reduction ([5]; N-source:H2O2:KI 0:532:0 ppm, pH 5, 15 minute contact): 0.0* log
Log Reduction ([6]; active antimicrobial 80 ppm): <0.1 log
Log Reduction S. aureus [7]: 0.4 log
Log Reduction E. coli [8]: 0.2 log

O=CCCCC=O [Glutaraldehyde]
Outcome noted in parentheses at the listed concentration ([1]; 10-minute inactivation): 2-log
Minimum Concentration (for 10-minute inactivation) ([1]; unit not given): 10,000

CC(C)O [IPA]
Minimum Concentration (for 10-minute inactivation) [1]: 500,000 ppm

[I-].[K+] [KI, potassium iodide]
E. Coli Log Reduction [2]: 0 log
Log Reduction ([5]; N-source:H2O2:KI 0:0:500 ppm, pH 5, 15 minute contact): 0.0* log

CCCCCCCCCCCCCCCC[n+]1ccccc1 [cetyl pyridinium chloride]
Log Reduction [9]: 0.5 log

C[N+](C)(C)CCO.[Cl-] [choline chloride]
Log Reduction [2, 10]: 0.0 log
E. Coli Log Reduction [2]: 0 log
Log Reduction [4, 10]: 0.0 log

CCCCCCCCCC[N+](C)(C)CCCCCCCCCC.[Cl-] [didecyl dimethyl ammonium chloride]
Log Reduction ([4]; N-source:H2O2:KI 20:0:0 ppm, pH 3, 30 second contact): 0.1 log
Log Reduction ([5]; N-source:H2O2:KI 100:0:0 ppm, pH 7, 15 minute contact): 1.0* log

Oc1ccccc1-c1ccccc1 [o-phenylphenol G]
Minimum Concentration (for 10-minute inactivation) [1]: 100,000 ppm

CC(=O)OO [peracetic acid]
Log Reduction ([6]; active antimicrobial 80 ppm): 2.8 log

OCl [sodium hypochlorite]
Log Reduction ([6]; active antimicrobial 30 ppm): 0.3 log
Log Reduction ([6]; active antimicrobial 80 ppm): 1.9 log
Minimum Concentration (for 10-minute inactivation) [1]: 2,000 ppm

lecithin
E. Coli Log Reduction [2]: 0 log
